From publication PMC11992225, “Antibacterial compounds against non-growing and intracellular bacteria” (npj Antimicrobials and Resistance, 2025) come the findings set out here.

One data set deals with TC7 cells. In words: TC7 cell viability upon drug exposure, MTS assay. Format: cell-based. The note with it: at the MIC concentrations, 12 h, no bacteria. As for the experimental part:
TC7 cells were grown to confluence in transparent 96-well cell culture plates (TPP) in the same cell culture medium used for the in vitro infection assay. Just prior to the experiment, the medium was discarded, and the cells were washed twice with sterile PBS to remove any traces of medium or dead cells. […] The plate was incubated at 37 °C in a CO2 incubator for 12 h, under the same conditions as the infection assay.
The 3-(4,5-dimethylthiazol-2-yl)-5-(3-carboxymethoxyphenyl)-2-(4-sulfophenyl)-2H-tetrazolium (MTS) assay was performed using the CellTiter 96® AQueous One Solution Cell Proliferation Assay kit (Promega), according to the manufacturer’s instructions. Briefly, 20 μl of CellTiter 96 AQueous One Solution Reagent was added to each well, and the plate was incubated for 2 h at 37 °C in a CO2 incubator. The OD490 of the samples was measured using a Spark multimode plate reader (Tecan). The raw values were normalized to the control wells incubated with infection buffer only. The experiment was performed in duplicate.
(Tetrazolium assays rely on reduction of a dye to a coloured formazan, in cell work by metabolically active cells.)

Data set [1] has as its system non-growing P. aeruginosa. In words: Time-dependent effects of drug treatment on regrowth, P. aeruginosa. Format: cell-based, Pseudomonas aeruginosa. Particulars: 10 µM, OD600 8 h after dilution. As for the experimental part:
(§1) For screening and concentration-dependent characterization of the hit compounds, we used a 24-h incubation to capture their effects, although the actual onset of their activity may occur much sooner. To assess the speed of action, we treated stationary-phase cultures of three organisms with compounds that had previously shown a strong regrowth delay at 10 µM. We selected compounds that, in earlier tests, strongly delayed regrowth, such that diluted cultures remained below an OD600 of 0.12 (indicating no growth) after 6 h for UPEC or 8 h for P. aeruginosa and S. aureus in drug-free medium.
(§2) We collected samples at different times during the 24-h incubation, diluted them 2500-fold, and measured the OD600 after 6 or 8 h of further incubation, respectively. […] Rifampicin acts quickly against non-growing S. aureus, while the effects of the other compounds increase gradually during incubation but are already apparent within the first hour of treatment.
Bacteria were cultivated in 1:4 diluted CA-MHB (40 mM HEPES, pH 7.4) for 24 h. Aliquots were dispensed into a 96-well plate, and compounds were added at a 10 µM concentration. Samples were collected at designated time points, diluted 2500-fold as described for the dilution-regrowth assay, and incubated in standing plates within a humid box at 37 °C. The OD600 of the samples was measured to assess regrowth using a microplate reader (BioTek Synergy H1) after 6 h for UPEC and 8 h for P. aeruginosa and S. aureus. The experiment was performed in triplicates.

The subject of another data set is non-growing UPEC CFT073. In words: Time-dependent effects of drug treatment on regrowth, UPEC. Format: cell-based, Escherichia coli. The note with it: E. coli, 10 µM, OD600 6 h after dilution. How it is done: as §1, §2
(§3) Bacteria were cultivated in 1:4 diluted CA-MHB (40 mM HEPES, pH 7.4) for 24 h. Aliquots were dispensed into a 96-well plate, and compounds were added at a 10 µM concentration. […] The OD600 of the samples was measured to assess regrowth using a microplate reader (BioTek Synergy H1) after 6 h for UPEC and 8 h for P. aeruginosa and S. aureus. […]

The subject of a further data set is non-growing S. aureus. In words: Time-dependent effects of drug treatment on regrowth, S. aureus. Particulars: 10 µM, OD600 8 h after dilution. Format: cell-based, Staphylococcus aureus. How it is done: as §1, §2, §3

The structures appear in SMILES notation.

Regarding `CCCCC(CC)CNC(=N)NC(=N)NCCCCCCNC(=N)NC(=N)NCC(CC)CCCC` (stereo not drawn) [Alexidine], the “toxicity to TC7 epithelial cells” value with TC7 cells was “toxic”.

On to `CN1CCN(c2cc3c(cc2F)c(=O)c(C(=O)O)cn3-c2ccc(F)cc2)CC1` [Difloxacin], for which the “speed of action: regrowth delay over treatment time” value (from here on “speed … over treatment time”) in data set [1] is given as “act more slowly”.

On to `C[C@H]1NCc2cc(-c3ccc4c(=O)c(C(=O)O)cn(C5CC5)c4c3OC(F)F)ccc21` [Garenoxacin], for which the “speed … over treatment time” value in the data set with non-growing UPEC CFT073 is reported as “act more slowly”.

Turning to `CO[C@H]1/C=C/O[C@@]2(C)Oc3c(C)c(O)c4c(O)c(c(/C=N/N5CCN(C)CC5)c(O)c4c3C2=O)NC(=O)/C(C)=C\C=C\[C@H](C)[C@H](O)[C@@H](C)[C@@H](O)[C@@H](C)[C@H](OC(C)=O)[C@@H]1C` [Rifampicin], in the data set with non-growing S. aureus, the “speed … over treatment time” value is “acts quickly”.

`CC(=O)[O][Pt]([NH2])([Cl])([Cl])([NH]C1CCCCC1)[O]C(C)=O` [Satraplatin]: the “speed … over treatment time” value in data set [1] is given as “act more slowly”. In the data set on TC7 cells, the “toxicity to TC7 epithelial cells” value is reported as “toxic”.

As to `C[C@@H]1CN(c2c(F)c(N)c3c(=O)c(C(=O)O)cn(C4CC4)c3c2F)C[C@H](C)N1` [Sparfloxacin], the “speed … over treatment time” value in data set [1] is “act more slowly”.

Take `N[C@@H]1[C@H]2CN(c3nc4c(cc3F)c(=O)c(C(=O)O)cn4-c3ccc(F)cc3F)C[C@@H]12` [Trovafloxacin]: the “speed … over treatment time” value in data set [1] was “act more slowly”.

With `C=C[C@]1(C)C[C@@H](OC(=O)CSC(C)(C)CNC(=O)[C@H](N)C(C)C)[C@]2(C)[C@H](C)CC[C@]3(CCC(=O)[C@H]32)[C@@H](C)[C@@H]1O` [Valnemulin], the “toxicity to TC7 epithelial cells” value in the data set with TC7 cells is given as “toxic”.
